The source of these data is patent publication EP1935887A1, “Heterocyclic substituted carbonyl derivatives and their use as dopamine D3 receptor ligands” (Aventis Pharmaceuticals Inc., priority 2001, dated 2002).

One test deals with T1, Cloned Human Dopamine D3 Receptors (Homo sapiens, UniProt P35462).
T1 construct: expressed in transfected cells; membrane homogenate
T1 sequence (P35462 whole entry): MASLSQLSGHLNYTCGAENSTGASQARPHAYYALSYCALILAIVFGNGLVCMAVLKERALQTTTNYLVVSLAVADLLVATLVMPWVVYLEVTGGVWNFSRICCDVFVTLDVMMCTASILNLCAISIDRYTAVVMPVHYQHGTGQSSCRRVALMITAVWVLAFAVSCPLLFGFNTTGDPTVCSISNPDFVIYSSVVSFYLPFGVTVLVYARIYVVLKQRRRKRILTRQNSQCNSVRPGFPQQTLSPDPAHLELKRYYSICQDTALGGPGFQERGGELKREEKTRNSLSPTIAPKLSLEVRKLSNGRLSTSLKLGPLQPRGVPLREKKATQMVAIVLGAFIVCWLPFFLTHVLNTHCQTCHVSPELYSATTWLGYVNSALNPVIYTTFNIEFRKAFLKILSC
Description: [N-Methyl-3H]Spiroperidol binding to cloned human dopamine D3 receptors. The following applies: Table 2; unit inferred; read-out: d3Ki. The text has this:
[N-Methyl-^3H]Spiroperidol Binding to Cloned Human Dopamine D3 Receptors
This assay measures the in vitro activity of compounds on cloned human dopamine (D3) receptors and predicts the direct dopamine-blocking properties of putative neuropsychiatric agents at human dopamine D3 receptors.
The D3 gene was isolated from a human striatal cDNA library (Stratagene). The gene was sequenced and sub-cloned into the expression vector RC/RSV (Invitrogen). CHO (Chinese Hamster Ovary) cells were stably transfected with 10 µg of the D3/RSV plasmid using the DOTAP method from Boehringer Mannheim and 72 clones that were G418 resistant were isolated. Using mRNA and binding displacement data a single high expressing clone was identified. This clone was then grown in large batches for the purpose of developing a 96 well format assay.
• 1. One plate (10 cm) with approximately 2-3 million D3 cells per plate is incubated with 1 ml of Trypsin-EDTA at room temperature for -2 min or until cells have lifted off plates. Four ml of Ham's F12 + 10% Fetal Bovine Serum + 1% Penicillin/Streptomycin + G418 (400 µg/ml) medium are added to resuspend cells and 1 ml of this is added to each large plate (15 cm) containing 19 ml of the same medium as mentioned above. • 2. The 5 large plates are incubated at 37°C + 5% CO2 for - 3 days or until the cells are confluent. • 3. After these plates are confluent, they are split into 10 large plates. Medium is aspirated off, 2 ml of Trypsin-EDTA are added to each plate and plates are incubated at RT for 2 min or until cells have lifted off the plate. Eight ml of the F12 medium (same medium as #1 above) are added to each plate (10 ml total) to resuspend the cells and 5 ml are transferred to the 2 new plates containing 15 ml of the F12 media. • 4. The 10 large plates are incubated at 37°C + 5% CO2 for ∼ 2 days or until the cells are confluent. • 5. The 10 large plates are split into 60 large plates (using Trypsin-EDTA as #3 except 4 ml of F12 medium are added to resuspend cells and 1 ml is aliquoted to 6 new plates containing 19 ml of F12 medium each). • 6. Plates are incubated at 37°C + 5% CO2 for - 3 days or until cell are confluent. • 7. The 60 large plates are then split into 60 roller bottles (100-150 million cells/bottle). Medium is aspirated off , 2 ml of Trypsin-EDTA are added to each plate and incubated at RT for -2 minutes or until cells have lifted off plates. Eight ml of F12 medium are added to each plate to resuspend cells and the entire 10 ml are added to 1 roller bottle containing 90 ml of the F12 medium. • 8. The 60 roller bottles are immediately placed on their sides and transferred to the roller bottle incubator. They are incubated at 37°C + 5% CO2 for ~ 3-5 days. Cells are spun at 30-40% motor speed in the Forma incubator. • 9. Medium is poured off and cells are washed 2X in PBS. • 10. Cells are then scraped off in 20 ml of PBS and the bottles are rinsed again with 5 ml of PBS to remove any remaining cells. Cells are stored on ice before membrane prepration. • 11. The yield for 60 D3 roller bottles has varied from - 260-500 mg. Note: All tissue culture reagents are from Gibco-BRL.
The cells are harvested into 250 ml centrifuge tubes with 100 volumes of cold phosphate buffered saline (PBS) and spun down (1200xG for 10 min at 4°C). The medium is removed and 100 ml PBS are added to each centrifuge tube, cells are resuspened and spun down again. The PBS is removed and the final pellet is homogenized in an appropriate volume of 10% DMSO with a polytron on ice at a medium setting.
A 200 µl sample membrane homogenate is added to 200 µl of 1% SDS, vortexed and allowed to stand for 5 min. Aliquots (25, 50 and 100 µl) of this mixture are assayed in duplicate following the standard Bio-Rad DC protein assay protocol (kit catalog number 500-0112) and using reagent S. Absorbance readings are made at 750 nm (note: the most accurate protein OD readings are between 0.1-0.5 units). […]
As for `CC1CCC(NC(=O)C2CC2CN2CCN(c3cccc(Cl)c3Cl)CC2)CC1` (stereo not drawn) [compound 817037], the Ki is 0.98 nM.
Consider `COc1ccc(Cl)cc1N1CCN(CC2CC2C(=O)NC2CCC(C)CC2)CC1` (stereo not drawn) [compound 817038], for which the Ki worked out at 0.952 nM.
For `CC1CCC(NC(=O)C2CC2CN2CCN(c3ccc(C(F)(F)F)cc3)CC2)CC1` (stereo not drawn) [compound 817039], the Ki is 14.8 nM.
Take `C[C@H]1CC[C@H](NC(=O)[C@@H]2C[C@H]2CN2CCN(c3ccccc3C#N)CC2)CC1` [compound 817040]: the Ki is 0.804 nM.
With `CCC1CCC(NC(=O)C2CC2CN2CCN(c3cccc(Cl)c3Cl)CC2)CC1` (stereo not drawn) [compound 817041], the Ki is 0.776 nM.
As to `CCC1CCC(NC(=O)C2CC2CN2CCN(c3cc(Cl)ccc3OC)CC2)CC1` (stereo not drawn) [compound 817042], the Ki was 0.615 nM.
As to `CCC1CCC(NC(=O)C2CC2CN2CCN(c3ccc(C(F)(F)F)cc3)CC2)CC1` (stereo not drawn) [compound 817043], the Ki came to 7.2 nM.
As for `CC[C@H]1CC[C@H](NC(=O)[C@@H]2C[C@H]2CN2CCN(c3ccccc3C#N)CC2)CC1` [compound 817044], the Ki amounted to 1.1 nM.
Consider `Cc1ccc(N2CCN(C[C@@H]3C[C@H]3C(=O)N[C@H]3CC[C@H](C)CC3)CC2)cc1C` [compound 817045], for which the Ki was 5.36 nM.
Consider `CCC1CCC(NC(=O)C2CC2CN2CCN(c3ccc(C)c(C)c3)CC2)CC1` (stereo not drawn) [compound 817046], for which the Ki is 1.92 nM.
The same measure, in the same setting: next, `O=C(N[C@H]1CC[C@H](C(=O)N2CCCC2)CC1)[C@@H]1C[C@H]1CN1CCN(c2csc3cc(C(F)(F)F)ccc23)CC1` [compound 817047]: 2.86 nM.
Regarding `CCN(CC)C(=O)[C@H]1CC[C@H](NC(=O)[C@@H]2C[C@H]2CN2CCN(c3csc4cc(C(F)(F)F)ccc34)CC2)CC1` [compound 817048], the Ki amounted to 2.85 nM.
Same read-out and setting: next, `COCCNC(=O)C1CCC(NC(=O)C2CC2CN2CCN(c3csc4cc(C(F)(F)F)ccc34)CC2)CC1` (stereo not drawn) [compound 817049]: 7.02 nM.
On the same count and under the same terms, next, `C[C@]1(O)CC[C@H](NC(=O)[C@@H]2C[C@H]2CN2CCN(c3csc4cc(C(F)(F)F)ccc34)CC2)CC1` [compound 817050]: 2.15 nM; `C[C@]1(O)CC[C@@H](NC(=O)[C@@H]2C[C@H]2CN2CCN(c3csc4cc(C(F)(F)F)ccc34)CC2)CC1` [compound 817051]: 3.47 nM; `CC[C@H]1CC[C@H](NC(=O)[C@@H]2C[C@H]2CN2CCN(c3ccc(Cl)c(Cl)c3)CC2)CC1` [compound 817090]: 2.17 nM.
Consider `CC[C@H]1CC[C@H](NC(=O)[C@@H]2C[C@H]2CN2CCN(c3ccc(C)cc3C)CC2)CC1` [compound 817091], for which the Ki was found to be 3.98 nM.
For `CC[C@H]1CC[C@H](NC(=O)[C@@H]2C[C@H]2CN2CCN(c3ncc(C(F)(F)F)cc3Cl)CC2)CC1` [compound 817093], the Ki turned out to be 5.97 nM.
Same read-out and setting: next, `COc1ccc(N2CCN(C[C@@H]3C[C@H]3C(=O)N[C@H]3CC[C@H](C)CC3)CC2)c(OC)c1` [compound 817094]: 8.89 nM.
In the case of `C[C@H]1CC[C@H](NC(=O)[C@@H]2C[C@H]2CN2CCN(c3cc(Cl)cc(Cl)c3)CC2)CC1` [compound 817095], the Ki came out at 0.671 nM.
With `CC[C@H]1CC[C@H](NC(=O)[C@@H]2C[C@H]2CN2CCN(c3ccc(OC)cc3OC)CC2)CC1` [compound 817096], the Ki is 9.09 nM.
As to `CCC1CCC(NC(=O)C2CC2CN2CCN(c3cc(Cl)cc(Cl)c3)CC2)CC1` (stereo not drawn) [compound 817097], the Ki is 0.636 nM.
Turning to `C[C@H]1CC[C@H](NC(=O)[C@@H]2C[C@H]2CN2CCN(c3cccc4[nH]ccc34)CC2)CC1` [compound 817098], the Ki amounted to 1.06 nM.
Take `C[C@H]1CC[C@H](NC(=O)[C@@H]2C[C@H]2CN2CCN(c3cccc4ccccc34)CC2)CC1` [compound 817099]: the Ki is 1.1 nM.
Regarding `CCC1CCC(NC(=O)C2CC2CN2CCN(c3cccc4[nH]ccc34)CC2)CC1` (stereo not drawn) [compound 817100], the Ki amounted to 0.75 nM.
Consider `CC[C@H]1CC[C@H](NC(=O)[C@@H]2C[C@H]2CN2CCN(c3cccc4ccccc34)CC2)CC1` [compound 817101], for which the Ki worked out at 0.547 nM.
In the case of `CC[C@H]1CC[C@H](NC(=O)[C@@H]2C[C@H]2CN2CCN(c3cc(C)ccc3C)CC2)CC1` [compound 817102], the Ki was 7.75 nM.
`CCC1CCC(NC(=O)C2CC2CN2CCCN(c3cc(C(F)(F)F)nc(C(C)(C)C)n3)CC2)CC1` (stereo not drawn) [compound 817260]: the Ki worked out at 12.5 nM.
For `CC1CCC(NC(=O)C2CC2CN2CCCN(c3cc(C(F)(F)F)nc(C(C)(C)C)n3)CC2)CC1` (stereo not drawn) [compound 817261], the Ki worked out at 9.23 nM.
With `CCCc1cc(N2CCCN(C[C@@H]3C[C@H]3C(=O)N[C@H]3CC[C@H](CC)CC3)CC2)nc(C(C)(C)C)n1` [compound 817272], the Ki amounted to 1.72 nM.
Regarding `CCCc1cc(N2CCCN(C[C@@H]3C[C@H]3C(=O)N[C@H]3CC[C@H](C)CC3)CC2)nc(C(C)(C)C)n1` [compound 817273], the Ki came to 3.05 nM.
With `C[C@H]1CC[C@H](NC(=O)[C@@H]2C[C@H]2CN2CCN(c3ncccc3Cl)CC2)CC1` [compound 817565], the Ki is 1.73 nM.
As for `CC[C@H]1CC[C@H](NC(=O)[C@@H]2C[C@H]2CN2CCN(c3ncccc3Cl)CC2)CC1` [compound 817566], the Ki was 2.46 nM.
As for `CC1CCC(NC(=O)C2CC2CN2CCCN(c3cnccn3)CC2)CC1` (stereo not drawn) [compound 817567], the Ki worked out at 80.6 nM.
The same measure, in the same setting: next, `CC[C@H]1CC[C@H](NC(=O)[C@@H]2C[C@H]2CN2CCCN(c3cnccn3)CC2)CC1` [compound 817568]: 36.3 nM; `CCC1(O)CCC(NC(=O)[C@@H]2C[C@H]2CN2CCN(c3csc4cc(C(F)(F)F)ccc34)CC2)CC1` (stereo partly drawn) [compound 818497]: 5.52 nM.
`CC1CCC(NC(=O)C2CC2CN2CCCN(c3ccccn3)CC2)CC1` (stereo not drawn) [compound 818498]: the Ki came out at 25.6 nM.
For the compound `CC[C@H]1CC[C@H](NC(=O)[C@@H]2C[C@H]2CN2CCN(c3csc4cc(C(F)(F)F)ccc34)CC2)CC1` [compound 818499], the Ki is 22.1 nM.
For the compound `CCC1CCC(NC(=O)C2CC2CN2CCN(c3noc4ccsc34)CC2)CC1` (stereo not drawn) [compound 818574], the Ki is 9.6 nM.

Still in this test, the particulars now being: d3Ki, Table 2; unit inferred.
`C[C@H]1CC[C@H](NC(=O)[C@H]2C[C@@H]2CN2CCN(c3noc4ccsc34)CC2)CC1` [compound 817893]: the Ki worked out at 245 nM.
Consider `CC1CCC(NC(=O)C2CC2CN2CCN(c3noc4ccsc34)CC2)CC1` (stereo not drawn) [compound 818427], for which the Ki was found to be 6.07 nM.

Still in this test, the particulars now being: read-out: d3Ki.
`O=C(N[C@H]1CC[C@H](O)CC1)[C@@H]1C[C@H]1CN1CCN(c2csc3cc(C(F)(F)F)ccc23)CC1` [compound 816592]: the Ki came to 11 nM.
Take `O=C(NC1CCC(CO)CC1)C1CC1CN1CCN(c2csc3cc(C(F)(F)F)ccc23)CC1` (stereo not drawn) [compound 816593]: the Ki came out at 7.47 nM.
Take `Cc1ccccc1N1CCN(CC2CC2C(=O)NC2CCC(C)CC2)CC1` (stereo not drawn) [compound 817478]: the Ki was determined as 1.46 nM.
On the same count and under the same terms, next, `CC[C@H]1CC[C@H](NC(=O)[C@@H]2C[C@H]2CN2CCN(c3ncc(C(F)(F)F)cc3Cl)CC2)CC1` [compound 817480]: 3.07 nM; `CC[C@H]1CC[C@H](NC(=O)[C@@H]2C[C@H]2CN2CCN(c3cc(C)ccc3C)CC2)CC1` [compound 817570]: 6.24 nM; `CC[C@H]1CC[C@H](NC(=O)[C@@H]2C[C@H]2CN2CCN(c3ccc(C)cc3C)CC2)CC1` [compound 817571]: 2.85 nM.
Consider `CCC1CCC(NC(=O)C2CC2CN2CCN(c3ccccc3C)CC2)CC1` (stereo not drawn) [compound 818675], for which the Ki amounted to 0.711 nM.
